{"source": "patent US8053392B2", "about": "“Auxin acid-catalyzed stable microemulsion pesticide formulation” (PBI/Gordon Corporation, priority 2007, dated 2011)", "test": "Chemical stability tests of active ingredients in microemulsion formulations at 40° C. for one month", "assay_type": "physicochemical", "method": "Chemical stability tests were conducted on four-way active ingredient microemulsion formulations at 40° C. for one month to determine the active ingredient percent difference at the end of one month.\nOther formulations were subjected to accelerated chemical stability tests at a temperature of 40° C. for a period of one month to determine total chemical stability of the active ingredients.\nOnly the chemical stability of pyraflufen-ethyl was analyzed because of its susceptibility to hydrolysis, as set forth in Examples 13-16.", "key": {"[1]": {"conditions": "four-way microemulsion of Example 11"}, "[2]": {"conditions": "four-way microemulsion of Example 12"}}}
{"smiles": "CCCCC(CC)COC(=O)COc1ccc(Cl)cc1Cl", "note": "(stereo not shown) [2,4-D 2EHE, 2,4-D 2-ethyl hexyl ester]", "values": [{"measurement": "Chemical Stability (active ingredient percent difference)", "setting": "[1]", "value": "+1.25%"}, {"measurement": "Chemical Stability (active ingredient percent difference)", "setting": "[2]", "value": "+2.02%"}]}
{"smiles": "CCOC(=O)COc1cc(-c2nn(C)c(OC(F)F)c2Cl)c(F)cc1Cl", "note": "[Pyraflufen-ethyl]", "values": [{"measurement": "Pyraflufen-ethyl Chemical Stability", "setting": "formulation of Example 13 (2,4-D acid 9.0%, Dicamba […], Pyraflufen-ethyl 0.6%)", "value": "+5.89%"}, {"measurement": "Pyraflufen-ethyl Chemical Stability", "setting": "formulation of Example 14 (2,4-D acid 9.0%, R(+)MCPP 1.63%, Pyraflufen-ethyl 0.6%)", "value": "+1.05%"}, {"measurement": "Pyraflufen-ethyl Chemical Stability", "setting": "formulation of Example 15 (2,4-D acid 9.0%, R(+)MCPP 1.63%, Dicamba […], Pyraflufen-ethyl 0.6%)", "value": "+1.07%"}, {"measurement": "Pyraflufen-ethyl Chemical Stability", "setting": "formulation of Example 16 (2,4-D acid 9.0%, Pyraflufen-ethyl 0.1%)", "value": "+0.93%"}, {"measurement": "Chemical Stability (active ingredient percent difference)", "setting": "[1]", "value": "+1.44%"}, {"measurement": "Chemical Stability (active ingredient percent difference)", "setting": "[2]", "value": "−0.90", "unit": "%"}]}
{"smiles": "O=C(O)COc1nc(Cl)c(Cl)cc1Cl", "note": "[Triclopyr]", "values": [{"measurement": "Chemical Stability (active ingredient percent difference)", "setting": "[1]", "value": "+1.94%"}, {"measurement": "Chemical Stability (active ingredient percent difference)", "setting": "[2]", "value": "+2.38%"}]}
